How the values were obtained:
[1] = mass balance study with [14C]vibegron in healthy subjects; details: human plasma at 2 and 4 hr
men and women with OAB = assay: Phase 2b study in OAB, efficacy (voiding diary); type: in vivo, human; details: tolterodine ER 4 mg once daily
Excerpt: Part 2 was designed to continue to assess the safety and efficacy of concomitant dosing. […] Subjects in both Part 1 and Part 2 had the option of enrolling in a 1-year extension. Participants were required to keep a voiding diary, recording the occurrence of each strong urge, total incontinence, and urge incontinence episode. Efficacy data for Part 1 and Part 2 are summarized herein.
The total number of urgency incontinence episodes must have exceeded the total number of stress incontinence episodes for all subjects.

patients with OAB = assay: Phase 2b vital sign changes (HR, SBP, DBP); type: in vivo, human; details: Tolterodine 4 mg
Excerpt: None led to discontinuation. The overall incidence of orthostatic symptoms was low.
Small differences in the percent of subjects exceeding categorical heart rate and blood pressure thresholds for vibegron were similar to those in the tolterodine arm.

[2] = system: patients with overactive bladder
Excerpt: A placebo group was included in the main study, and a group that received tolterodine monotherapy was included in the main study and in the extension.

[3] = system: patients with overactive bladder; assay: Phase 2b 52-week extension safety; type: in vivo, human; details: tolterodine ER 4 mg
Excerpt: There were no deaths reported during the study.

healthy subjects = assay: thorough QT single oral dose study; type: in vivo, human; details: single dose of moxifloxacin 400 mg
[4] = Tolterodine ER 4 mg, N = 257, first 12 weeks

## O=C(O)C1OC(OC(c2ccccc2)C2CCC(Cc3ccc(NC(=O)C4CCc5nccc(=O)n54)cc3)N2)C(O)C(O)C1O (stereo not drawn) [M7]
[1]
  share of total circulating drug-related material: 12-14%

## Cc1ccc(O)c([C@H](CCN(C(C)C)C(C)C)c2ccccc2)c1 [Tolterodine ER, tolterodine]
Men and women with OAB; OAB Wet subjects
  Total Incontinence Episodes, change from baseline Week 8, mean: −1.80
  Total Incontinence Episodes, daily number, Week 8 mean: 1.32
  Total Incontinence Episodes, difference from placebo Week 8, LS means: −0.34
  Urgency Incontinence Episodes, change from baseline Week 8, mean: −1.67
  Urgency Incontinence Episodes, daily number, Week 8 mean: 1.15
  Urgency Incontinence Episodes, difference from placebo Week 8, LS means: −0.46
Men and women with OAB; Part 1
  Micturitions, change from baseline Week 8, mean: −1.73
  Micturitions, daily number, Week 8 mean: 9.24
  Micturitions, difference from placebo Week 8, LS means: −0.54
  Urgency Episodes, change from baseline Week 8, mean: −2.52
  Urgency Episodes, daily number, Week 8 mean: 3.91
  Urgency Episodes, difference from placebo Week 8, LS means: −0.94
Men and women with OAB; Week 8
  change from baseline in volume voided per micturition, difference from placebo in LS means: 30.77 mL
Patients with OAB
  DBP change from baseline, mean (95% CI) Max, week 1 to 8: 5.19 (4.26, 6.13) mm Hg
  DBP change from baseline, mean (95% CI), week 1: −0.12 (−1.10, 0.86) mm Hg
  HR change from baseline, mean (95% CI) maximum, week 1 to 8: 5.66 (4.69, 6.63) bpm
  HR change from baseline, mean (95% CI), week 1: 0.68 (−0.31, 1.67) bpm
  SBP change from baseline, mean (95% CI) maximum, week 1 to 8: 7.29 (6.01, 8.57) mm Hg
  SBP change from baseline, mean (95% CI), week 1: 0.04 (−1.36, 1.43) mm Hg
[2]; Phase 2 program
  frequency of injuries: 2.1%
[2]; [4]
  Accidental overdose, %: (2.3) %
  Alanine aminotransferase increased, %: (0.4) %
  Arthralgia, %: (1.2) %
  Aspartate aminotransferase increased, %: (0.0) %
  Constipation, %: (1.9) %
  Diarrhea, %: (3.5) %
  Discontinuation due to AE, %: (1.6) %
  Dizziness, %: (1.9) %
  Drug-related AE, %: (16.3) %
  Dry eye, %: (3.9) %
  Dry mouth, %: (8.6) %
  Dysuria, %: (1.2) %
  Fatigue, %: (2.3) %
  Headache, %: (3.5) %
  Nasopharyngitis, %: (1.6) %
  Nausea, %: (2.3) %
  Osteoarthritis, %: (0.0) %
  Pain in extremity, %: (0.4) %
  Serious AE, %: (1.2) %
  Sinusitis, %: (0.4) %
  Urinary tract infection, %: (4.7) %
  ≥1 AE, %: (45.1) %
[2]; groups that received tolterodine (alone or with vibegron), main study
  incidence of dry mouth compared to placebo or vibegron monotherapy groups: higher
[2]; tolterodine 4 mg, main study
  SAEs reported: 3
[3]
  drug-related SAE: one drug-related SAE of ileus paralytic
  incidence of dry mouth compared to the other treatment groups: higher

## COc1c(N2C[C@@H]3CCCN[C@@H]3C2)c(F)cc2c(=O)c(C(=O)O)cn(C3CC3)c12 [moxifloxacin, reference compound]
Healthy subjects
  effect on QTcF: statistically significant effect

Source: patent US12102638B2 (Urovant Sciences GmbH, priority 2017, dated 2024)
